“And” between values parts separate entries of the source, which are not always exact repeats. Equal entries are not always repeated.
System: anti collagen antibodies induced arthritis (ACAIA)
Test: Anti collagen antibodies induced arthritis (ACAIA) in mice, intra-articular treatment: paw thickness, arthritis clinical score, body weight;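 further: mouse arthritis induced by IV anti-collagen mAb on day 0 plus IP LPS on day 4, with body weight, caliper paw thickness and 0-4 paw score tracked against a day 0 baseline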
Conditions: for Average clinical score per day (untreated): untreated leg
[1] = BETi1 0.1 mg/kg IA (Group 4), Av
[2] = BETi1 0.1 mg/kg IA (Group 4), individual animals, 0.1 mg/kg
[3] = BETi1 1 mg/kg IA (Group 3), individual animals, 1 mg/kg
[4] = BETi1 10 mg/kg IA (Group 2), Av
[5] = BETi1 10 mg/kg IA (Group 2), individual animals, 10 mg/kg

Procedure: A homogenous dispersion is accomplished by sonication at 40 kHz for 30 minutes. The homogeneity including absence of aggregates of particles of the dispersion is confirmed by light microscopy. Lower concentrations are obtained by corresponding dilution of dispersion at 4 mg/gram with NaCMC solution. All dispersions are thermally sterilized.
Animals weighing −20 g are administered with 0.2 ml or 50 μl of dosing solution via IA (Groups 1-5).
During the acclimation period (at least 5 days), animals are randomly assigned to experimental groups according to body weight. Each dosing group is kept in separate cages to avoid cross-contamination which can occur through the consumption of fecal matter during the study. To generate the morphological and functional aspects of Rheumatoid Arthritis, all mice (7 mice in each of Groups 1-7) are subjected to a tail intravenous (IV) injection of 0.4 ml of anti-collagen mAb (4 mg in 400 μl) on study day 0. LPS is injected intraperitoneally on study day 4 (50 μg LPS in 200 μl of PBS). Anti-collagen mAb is supplied by MD Biosciences, Division of Morwell Diagnostics GmbH and is used as provided.
50 μl of the positive control is administered via intra-articular (IA) on study days 0, 3, 6 and 9 (Group 7).
Animals are examined for signs of arthritis on study day 0 for all paws and again on study days 3-8, 10 and 12 (front left and right paws, hind left and right paws). The signs of arthritis on study day 0 serve as a baseline for the arthritis clinical score parameter. Arthritis reactions are reported for each paw according to a 0-4 scale in ascending order of severity as shown below.
Paw thickness for both hind paws is measured on study day 0 and again on study days 3-8, 10 and 12. The measurements of paw thickness on study day 0 serve as the baseline for the paw volume parameter. The measurements are carried out using a digital caliper.
Throughout the 13-day study general clinical signs and observation are performed and recorded if any unexpected abnormalities are observed. These clinical signs are observed in addition to the ACAIA clinical scoring and assessment.
Individual body weights are determined on study day 0 and shortly before arthritis induction on study day 0. The weights measured on study day 0 are used as baseline measurements. From disease induction the animals are weighed daily on study days 3-8, 10 and 12 (study termination).
Statistics and data evaluation are primarily based on the mean values for body weight, arthritis clinical scoring and paw thickness measurements. Where appropriate, analysis of the data by one-way ANOVA followed by Dunnett's post-test is applied to determine the significance of treatment effects. All data for the histopathological analysis is presented as Mean±SEM. The treatment groups are compared to the Vehicle group (Group 1) or the contralateral hind paw using the Student's T-test. A p-value <0.05 is considered to represent a significant difference.
Inflammatory arthritis was induced in BALB/C mice using a mixture of four arthritogenic MAbs by iv at Day 0 and was further challenged with an LPS iv injection at Day 4 (N=7/treatment group).
In this validated preclinical model for rheumatoid arthritis, inflammatory arthritis was induced in BALB/c mice by systemically injecting a mixture of four arthritogenic monoclonal antibodies against collagen II at day 1. In addition, the mice received a lipopolysaccharide injection systemically at day 4 to stimulate an acute systemic inflammatory response. […] Each animal treated with the intra-articular injections received the injection in the ankle of one rear paw. The untreated rear paw was assessed to evaluate any potential anti-inflammatory systemic effect. Treatment response was evaluated based on an assessment of paw thickening or swelling (in millimeters) and arthritis scoring based on a five-point composite severity scale of redness, swelling of the ankles and wrists, and paw thickness.

Cn1cc(-c2cccc(O)c2Oc2ccccc2)c2cc[nH]c2c1=O [BETi1]
Weight per day, Day 5 [1]: 18.6 g
Weight per day, Day 6 [1]: 18.1 g
Weight per day, Day 7 [1]: 18.1 g
Weight per day, Day 8 [1]: 17.9 g
Weight per day, Day 10 [1]: 18.1 g
Weight per day, Day 12 [1]: 19.1 g
Weight per day, Baseline [2]: 20.2 g and 21 g and 19.7 g and 21.9 g and 20.3 g and 21.5 g and 18.5 g
Weight per day, Day 3 [2]: 20 g and 21.2 g (2×) and 20.3 g and 22.4 g and 20.6 g and 18.8 g
Weight per day, Day 4 [2]: 20 g and 21.3 g and 18 g and 21.9 g and 20.4 g and 21.4 g and 19.1 g
Weight per day, Day 5 [2]: 18.1 g and 19 g and 16.6 g and 20.5 g and 19.4 g (2×) and 17.4 g
Weight per day, Day 6 [2]: 17.3 g and 18.7 g and 16.5 g and 19.7 g and 18.5 g and 18.9 g and 17.2 g
Weight per day, Day 7 [2]: 17.8 g and 18.8 g (2×) and 16.8 g and 19.5 g and 18.2 g and 16.7 g
Weight per day, Day 8 [2]: 17.5 g and 18.4 g (3×) and 16.7 g and 19.5 g and 16.6 g
Weight per day, Day 10 [2]: 18.2 g and 19 g and 16.8 g (2×) and 19.4 g and 17.7 g and 19.1 g
Weight per day, Day 12 [2]: 18.8 g and 19.9 g and 17.5 g and 20.7 g and 18.7 g and 20.2 g and 18 g
Weight per day, Baseline (BETi1 1 mg/kg IA (Group 3), Av): 20.7 g
Weight per day, Day 3 (BETi1 1 mg/kg IA (Group 3), Av): 20.7 g
Weight per day, Day 4 (BETi1 1 mg/kg IA (Group 3), Av): 21 g
Weight per day, Day 5 (BETi1 1 mg/kg IA (Group 3), Av): 19 g
Weight per day, Day 6 (BETi1 1 mg/kg IA (Group 3), Av): 18.5 g
Weight per day, Day 7 (BETi1 1 mg/kg IA (Group 3), Av): 18.6 g
Weight per day, Day 8 (BETi1 1 mg/kg IA (Group 3), Av): 18.9 g
Weight per day, Day 10 (BETi1 1 mg/kg IA (Group 3), Av): 19.3 g
Weight per day, Day 12 (BETi1 1 mg/kg IA (Group 3), Av): 20.1 g
Weight per day, Baseline [3]: 20.4 g and 22.5 g and 20.3 g and 19.9 g and 21.5 g and 19.7 g and 20.6 g
Weight per day, Day 3 [3]: 20.6 g and 22.1 g and 20.8 g and 19.6 g and 21 g and 19.8 g and 20.9 g
Weight per day, Day 4 [3]: 20.8 g and 22.5 g and 21.1 g and 19.9 g (2×) and 21.7 g and 21 g
Weight per day, Day 5 [3]: 19.1 g and 20.2 g and 19.2 g (2×) and 17.7 g and 17.9 g and 19.5 g
Weight per day, Day 6 [3]: 18.7 g and 18.6 g and 18.8 g (2×) and 18 g and 19.3 g and 17.2 g
Weight per day, Day 7 [3]: 18.3 g and 18.9 g (2×) and 17.8 g and 19.4 g and 17.7 g and 19.2 g
Weight per day, Day 8 [3]: 18.5 g and 19.8 g and 18.8 g and 17.9 g and 19.3 g and 18.2 g and 19.6 g
Weight per day, Day 10 [3]: 18.8 g and 21.3 g and 19 g and 18.6 g and 19.3 g and 18.7 g and 19.2 g
Weight per day, Day 12 [3]: 19.4 g (2×) and 22.5 g and 19.9 g and 19.3 g and 20.1 g (2×)
Weight per day, Baseline [4]: 21.3 g
Weight per day, Day 3 [4]: 21.4 g
Weight per day, Day 4 [4]: 21.5 g
Weight per day, Day 5 [4]: 19.6 g
Weight per day, Day 6 [4]: 19.6 g
Weight per day, Day 7 [4]: 19.5 g
Weight per day, Day 8 [4]: 19.2 g
Weight per day, Day 10 [4]: 19.4 g
Weight per day, Day 12 [4]: 20.2 g
Weight per day, Baseline [5]: 20.2 g and 21.6 g and 20.8 g and 21.7 g and 21.4 g and 22.2 g and 21.3 g
Weight per day, Day 3 [5]: 20.1 g and 21.5 g (2×) and 21.3 g (2×) and 22 g and 21.8 g
Weight per day, Day 4 [5]: 20.2 g and 21.4 g (2×) and 22.4 g and 21.6 g and 21.9 g and 21.7 g
Weight per day, Day 5 [5]: 18.5 g and 20.1 g and 19.3 g and 20.3 g and 19.9 g and 19.4 g
Weight per day, Day 6 [5]: 18.9 g and 19.8 g and 19.2 g and 19.5 g (2×) and 20.4 g
Weight per day, Day 7 [5]: 18.7 g and 19.4 g and 19.5 g and 19.6 g (2×) and 20.3 g
Weight per day, Day 8 [5]: 18.6 g and 19.2 g and 19.6 g and 18.8 g and 20.2 g and 19.1 g
Weight per day, Day 10 [5]: 18.3 g and 19.2 g and 19.8 g and 19.6 g and 20.5 g and 19.3 g
Weight per day, Day 12 [5]: 19.3 g and 20.3 g and 20.4 g and 19.9 g and 21.1 g and 20 g
Average clinical score per day (untreated) (0.01 mg/kg IA (Group 5), Baseline): 0.00 points
Average clinical score per day (untreated) (0.01 mg/kg IA (Group 5), Day 3): 0.00 points
Average clinical score per day (untreated) (0.01 mg/kg IA (Group 5), Day 4): 0.00 points
Average clinical score per day (untreated) (0.01 mg/kg IA (Group 5), Day 5): 0.00 points
Average clinical score per day (untreated) (0.01 mg/kg IA (Group 5), Day 6): 0.86 points
Average clinical score per day (untreated) (0.01 mg/kg IA (Group 5), Day 7): 1.57 points
Average clinical score per day (untreated) (0.01 mg/kg IA (Group 5), Day 8): 1.71 points
Average clinical score per day (untreated) (0.01 mg/kg IA (Group 5), Day 10): 2.14 points
Average clinical score per day (untreated) (0.01 mg/kg IA (Group 5), Day 12): 1.43 points
Average clinical score per day (untreated) (0.1 mg/kg IA (Group 4), Baseline): 0.00 points
Average clinical score per day (untreated) (0.1 mg/kg IA (Group 4), Day 3): 0.00 points
Average clinical score per day (untreated) (0.1 mg/kg IA (Group 4), Day 4): 0.00 points
Average clinical score per day (untreated) (0.1 mg/kg IA (Group 4), Day 5): 0.00 points
Average clinical score per day (untreated) (0.1 mg/kg IA (Group 4), Day 6): 1.14 points
Average clinical score per day (untreated) (0.1 mg/kg IA (Group 4), Day 7): 2.00 points
Average clinical score per day (untreated) (0.1 mg/kg IA (Group 4), Day 8): 2.29 points
Average clinical score per day (untreated) (0.1 mg/kg IA (Group 4), Day 10): 2.57 points
Average clinical score per day (untreated) (0.1 mg/kg IA (Group 4), Day 12): 3.00 points
Average clinical score per day (untreated) (1 mg/kg IA (Group 3), Baseline): 0.00 points
Average clinical score per day (untreated) (1 mg/kg IA (Group 3), Day 3): 0.00 points
Average clinical score per day (untreated) (1 mg/kg IA (Group 3), Day 4): 0.00 points
Average clinical score per day (untreated) (1 mg/kg IA (Group 3), Day 5): 0.00 points
Average clinical score per day (untreated) (1 mg/kg IA (Group 3), Day 6): 0.71 points
Average clinical score per day (untreated) (1 mg/kg IA (Group 3), Day 7): 1.43 points
Average clinical score per day (untreated) (1 mg/kg IA (Group 3), Day 8): 2.43 points
Average clinical score per day (untreated) (1 mg/kg IA (Group 3), Day 10): 2.00 points
Average clinical score per day (untreated) (1 mg/kg IA (Group 3), Day 12): 2.43 points
Average clinical score per day (untreated) (10 mg/kg IA (Group 2), Baseline): 0.00 points
Average clinical score per day (untreated) (10 mg/kg IA (Group 2), Day 3): 0.00 points
Average clinical score per day (untreated) (10 mg/kg IA (Group 2), Day 4): 0.00 points
Average clinical score per day (untreated) (10 mg/kg IA (Group 2), Day 5): 0.00 points
Average clinical score per day (untreated) (10 mg/kg IA (Group 2), Day 6): 0.83 points
Average clinical score per day (untreated) (10 mg/kg IA (Group 2), Day 7): 1.83 points
Average clinical score per day (untreated) (10 mg/kg IA (Group 2), Day 8): 3.00 points
Average clinical score per day (untreated) (10 mg/kg IA (Group 2), Day 10): 3.00 points
Average clinical score per day (untreated) (10 mg/kg IA (Group 2), Day 12): 3.33 points

— US20250339409A1, “USES OF PAN BET INHIBITORS” (VYNE THERAPEUTICS INC., priority 2021, published 2025)
